Laboratory results as given in patent publication US10519107B2, “Sulfonamide compounds and their use as STAT5 inhibitors” (Governing Council of the University of Toronto, priority 2014, dated 2019).
pKi: −log10 of the molar value.

Experiments:
[1] = target: wildtype STAT3 protein (Homo sapiens, UniProt P40763); experiment: Fluorescence polarization competitive binding, STAT3; details: FP; converted from IC50 with Equation 1
Protocol: Binding of compounds of the disclosure to the STAT5b SH2 domain was assessed using fluorescence polarization assays similar to those previously reported.^15 Analogous assays were also performed with STAT3 protein to determine the specificity of the compounds (13a-d). Fluorescence assays were performed in flat black 384-well plates (Corning) and fluorescence polarization measurements were taken with the Infinite M1000 machine (Tecan, Crailsheim, Germany). The buffer conditions for all assays were 20 mM HEPES, 50 mM NaCl, 1 mM EDTA, 2 mM dithiothreitol, pH 7.5 and the final DMSO concentration in the wells was kept constant at 10%.
Calibration curves for the wildtype STAT3 and STAT5b proteins were derived by incubating a 10 nM final concentration of fluoresceinated-phosphopeptide (5-FAM-pYLPQTC (SEQ ID NO:1) and 5-FAM-GpYLVLDKW (SEQ ID NO:2) for STAT3 and STAT5B, respectively), which are known to bind the SH2 domains, with increasing concentrations of protein (as shown in FIG. 3). The point at which 80% of the fluoresceinated-phosphopeptide was bound was used as the optimal protein concentration required for the competitive fluorescent polarization assays.
For the STAT5b fluorescence polarization assays, the 5-FAM-GpYLVLDKW (SEQ ID NO:2) peptide and STAT5b protein were first incubated for 30 minutes at room temperature. Compounds were titrated at concentrations ranging from 1->60,000 nM and incubated for a further 15 minutes at which point fluorescence polarization measurements were taken in triplicate. The final well concentrations of the fluoresceinated-phosphopeptide and STAT5B were 10 nM and 250 nM, respectively. The same protocol was used for the analogous STAT3 FP assays, except that the 5-FAM-pYLPQTC (SEQ ID NO:1) peptide was used as a probe and the final STAT3 concentration was 150 nM in each well.
The resulting fluorescence polarization measurements were normalized and plotted against compound concentration on a logarithmic scale. The raw data was fitted with a standard dose-normalized response inhibition curve using GraphPad Prism 6 software. The IC50 values were converted to Ki values using Equation 1, which corrects for protein concentration and is a more accurate determination of inhibitory constants in a fluorescence polarization assay than the Cheng-Pruskoff equation.^15 All inhibitory constants and calculated Ki values are summarized in Table 1.
Modified Cheng-Pruskoff equation containing a correction factor for protein concentration.

[2] = HPLC stability with excess glutathione tripeptide; format: in vitro ADME; details: 100 μM compound, 10 mM glutathione, HEPES buffer, 20 h
Text: Considering the structure of 13a, the pentafluorobenzene is the functional moiety that is likely most susceptible to nucleophilic attack from the GST enzyme. Specifically, the para position is highly electron withdrawn enabling for nucleophilic aromatic substitution to take place. […] Data points obtained with the analytical HPLC experiments were fit using ORIGIN software using an exponential decay equation. This equation models for chemical/biological processes whereby a rate in which something happens is proportional to the amount left. Each drug molecule has a certain probability of being metabolized in a small time interval. Thus, as a drug concentration goes down, the rate of its metabolism goes down as well.

Chain of wildtype STAT3 protein (P40763 whole entry, species assumed, the tested form may be a part): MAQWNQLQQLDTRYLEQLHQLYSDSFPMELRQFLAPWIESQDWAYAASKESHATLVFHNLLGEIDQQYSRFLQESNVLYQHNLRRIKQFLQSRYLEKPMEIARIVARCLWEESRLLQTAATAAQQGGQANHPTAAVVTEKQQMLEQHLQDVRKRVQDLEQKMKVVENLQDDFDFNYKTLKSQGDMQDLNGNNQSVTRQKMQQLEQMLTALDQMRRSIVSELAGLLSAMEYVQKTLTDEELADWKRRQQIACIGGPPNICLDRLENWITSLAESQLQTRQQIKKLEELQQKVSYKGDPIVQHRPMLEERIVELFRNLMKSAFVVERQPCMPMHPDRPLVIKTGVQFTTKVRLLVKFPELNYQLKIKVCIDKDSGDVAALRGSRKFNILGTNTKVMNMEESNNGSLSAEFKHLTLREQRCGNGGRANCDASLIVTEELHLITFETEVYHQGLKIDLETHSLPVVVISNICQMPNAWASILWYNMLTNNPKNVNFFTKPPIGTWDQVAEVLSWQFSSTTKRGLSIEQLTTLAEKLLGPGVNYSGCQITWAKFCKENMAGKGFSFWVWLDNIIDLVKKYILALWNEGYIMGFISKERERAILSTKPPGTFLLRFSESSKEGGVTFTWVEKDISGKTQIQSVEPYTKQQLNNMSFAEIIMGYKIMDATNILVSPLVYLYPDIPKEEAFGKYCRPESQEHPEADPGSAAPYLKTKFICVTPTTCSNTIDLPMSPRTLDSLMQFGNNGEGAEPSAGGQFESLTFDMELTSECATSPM

In the case of CC(C)(C)c1cc(CN(C(=O)CN(Cc2ccc(Cl)cc2)S(=O)(=O)c2c(F)c(F)c(F)c(F)c2F)c2ccc(C(=O)O)c(O)c2)cc(C(C)(C)C)c1 [Compound 13a, 4-(2-((N-(4-chlorobenzyl)-2,3,4,5,6-pentafluorophenyl)sulfonamido)-N-(3,5-di-tert-butylbenzyl)acetamido)-2-hydroxybenzoic Acid], the pKi [1] was less than 4.22 and the “stability to glutathione conjugation” value [2] was “stable to glutathione conjugation”.
